Laboratory results taken from paper PMC11877631, “Novel Nucleus-Oriented Quenched Activity-Based Probes Link Cathepsin Nuclear Localization with Mitosis” (ACS Sensors, 2025).

Legend:
[1] = target: Recombinant human cathepsin B (Homo sapiens, UniProt P07858); assay: Recombinant cathepsin labeling, fluorescent SDS-PAGE; format: binding; conditions: pH 5.5, 37 °C, probe intensities compared with KRS-D1(qAc), GB111-NH2 given as pretreatment before KRS probes
Method: (§1) Recombinant human cathepsins B (0.7 μg), L (0.6 μg), or S (0.7 μg) in reaction buffer (50 mM acetate, 5 mM MgCl2, 2 mM DTT, pH 5.5) was pretreated with the cathepsin inhibitor GB111-NH2 or vehicle for 30 min at room temp. Indicated concentrations of KRS probes were added to the samples for 30 min at 37 °C. The reaction was stopped by adding 4× sample buffer (40% glycerol, 0.2 M Tris/HCl 6.8, 20% β-mercaptoethanol, 12% SDS, and 0.4 mg/mL bromophenol blue). The samples were boiled and separated by a 12% SDS gel and scanned by a Typhoon laser scanner at Ex./Em. 535/570 nm for fluorescence.

[2] = target: Recombinant human cathepsin S (Homo sapiens, UniProt P25774); assay: as above; format: binding; conditions: pH 5.5, 37 °C, probe intensities compared with KRS-D1(qAc), GB111-NH2 given as pretreatment before KRS probes
Method: as §1

[3] = target: Recombinant human cathepsin L (Homo sapiens, UniProt P07711); assay: as above; format: binding; conditions: pH 5.5, 37 °C, probe intensities compared with KRS-D1(qAc), GB111-NH2 given as pretreatment before KRS probes
Method: as §1

[4] = system: HeLa cells; assay: Live cell confocal imaging and time-lapse movies; format: cell-based, human
Method: (§2) NIH-3T3 or HeLa cells were seeded in an 8-well coverslip chamber (Lab-Tek) at a density of 100,000 cells per well and grown at 37 °C under 5% of CO2, 24 h later, cells were treated with 2.5 μM KRSs probes for 6 h. The medium was replaced with DMEM without phenol red, and Hoechst was added to a final concentration of 5 μg/mL. Live imaging of cells using a Zeiss LSM 710 Axio Observer.Z1 with a 63/24 Oil DIC M27 lens, in Cy3 and DAPI channels, was performed over 24 h; pictures were taken every 20–25 min. The Z-stack analysis was performed using 3–5 different depths focusing on the cell nucleus; each slice was 1–1.5 μm. Image processing was performed using NIS-Elements image acquisition software, quantifying the 63× images of several experiments and calculating the average fluorescence intensity. Statistics and standard deviation were calculated by using Microsoft Excel.

[5] = system: NIH-3T3 cells; assay: Live cell confocal imaging; format: cell-based, mouse; conditions: NIH-3T3, 2.5 μM, 6 h; for Probe staining intensity in live cells: fluorescence microscopy; for Nuclear cathepsin labeling (confocal Z-stack, costaining with Hoechst): 63× objective
Method: as §2

[6] = Quenching efficiency (fluorescent plate reader); format: physicochemical; conditions: lower fluorescence than average of nonquenched probes; slope ratio; 0.013–10 μM in acetate buffer pH 5.5; Ex./Em. 535/570 nm
Method: Increasing concentrations (0.013–10 μM) of KRS (A1-F1), in acetate buffer (50 mM acetate, 5 mM MgCl2, 2 mM DTT, pH 5.5), were prepared in a 96-well plate. Fluorescence was measured and quantified using a BioRad plate reader, Ex./Em. 535/570 nm. Arbitrary fluorescent units were plotted versus probe concentration, and the ratio between the slope of each quenched probe and the average of the nonquenched probes were determined as quenching efficiency.

[7] = target: T1, intracellular cathepsin L in NIH-3T3 cells (Mus musculus, UniProt P06797); assay: Probe labeling in intact cells, fluorescent SDS-PAGE; format: cell-based; conditions: live NIH-3T3, 6 h probe incubation, band intensity; in comparison to probes without the CPP
T1 construct: KRS probes freely penetrated the cells and labeled endogenous cathepsins in a dose-dependent manner; endogenous in cells; host or cells: NIH-3T3
Method: (§3) NIH-3T3 cells (2.5 × 10^5 cells/well) were seeded in a 12-well plate 1 day prior to treatment. Cells were pretreated with inhibitor GB111-NH2 or vehicle for 30 min followed by incubation with KRS probes at indicated concentrations predissolved in 0.1% DMSO and 0.9% ethanol in a culture medium. After 6 h of probe incubation cells were washed with PBS and lysed by addition of sample buffer as described above. Lysates were boiled for 5 min, centrifuged, and separated by 12.5% SDS-PAGE. Cathepsins labeled in cells were visualized by scanning the gel with a Typhoon laser scanner at Ex./Em. 535/570 nm.

[8] = target: T2, intracellular cathepsin B in NIH-3T3 cells (Mus musculus, UniProt P10605); format: cell-based; conditions: for Labeling of intracellular cathepsin B: live NIH-3T3, 6 h probe incubation, band intensity, in comparison to probes without the CPP
T2 construct: KRS probes freely penetrated the cells and labeled endogenous cathepsins in a dose-dependent manner; endogenous in cells; host or cells: NIH-3T3
Method: as §3

[9] = system: HeLa cells; assay: Subcellular fractionation with fluorescent SDS-PAGE; format: cell-based, human; conditions: 2.5 μM, 6 h; for Active cathepsin in nuclear fraction: 20 μg protein per fraction
Method: Cell fractionation was performed according to the manufacturer’s instructions using the Subcellular Protein Fractionation Kit for Cultured Cells (Pierce, Thermo Fisher Scientific Inc., Rockford, IL, USA, number 78840). Lysed cells were separated into subsequent cytosol, membrane, and nuclear fractions. Extracted proteins were subjected to SDS PAGE separation and fluorescence and Western blot analysis.

[10] = system: NIH-3T3 cells; format: cell-based, mouse
Method: (§4) NIH-3T3 cells (2.5 × 10^5 cells/well) or HeLa cells (2.0 × 10^5 cells/well) were seeded in a 12-well plate 1 day before treatment. Cells were incubated with KRS probes at 2.5 μM predissolved in 0.1% DMSO and 0.9% ethanol in a culture medium for indicated durations. After the incubation, cells were washed with PBS and lysed by the addition of sample buffer. Samples were analyzed by fluorescent SDS-PAGE as described above.

[11] = system: HeLa cells; format: cell-based, human
Method: as §4

[12] = system: HeLa cells; assay: Image Streamer flow imaging, fixed cells; format: cell-based, human; conditions: 6 h, Draq5 stain
Method: Live or methanol fixed cells were pretreated with KRS probes at 2.5 μM for 6 h predissolved in 0.1% DMSO and 0.9% ethanol in a culture medium. After the incubation, cells were washed with PBS centrifuged and dissolved in PBS in a final volume of 50 μL. The DNA markers: Hoechst (Thermo Fisher) at a final concentration of 1 μg/mL or Draq5 (Thermo Fisher) at a final concentration of 1.5 μM were added. The samples were analyzed using an Image StreamX Flow Imager system (Merk Millipore).

T1 sequence (P06797 114-334): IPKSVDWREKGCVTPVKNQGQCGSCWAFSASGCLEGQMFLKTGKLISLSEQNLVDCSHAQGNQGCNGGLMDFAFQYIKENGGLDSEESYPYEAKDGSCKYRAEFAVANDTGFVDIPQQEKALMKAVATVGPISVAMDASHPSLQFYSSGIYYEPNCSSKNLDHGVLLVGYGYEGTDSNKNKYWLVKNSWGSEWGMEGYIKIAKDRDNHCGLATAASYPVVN
Recombinant human cathepsin S, sequence (P25774 115-331): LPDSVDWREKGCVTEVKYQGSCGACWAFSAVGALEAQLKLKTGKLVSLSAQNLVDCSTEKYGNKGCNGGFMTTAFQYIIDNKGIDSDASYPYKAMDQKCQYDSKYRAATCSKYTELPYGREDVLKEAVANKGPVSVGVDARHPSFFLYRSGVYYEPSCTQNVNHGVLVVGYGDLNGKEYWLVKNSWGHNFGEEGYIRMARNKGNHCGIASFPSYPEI
Recombinant human cathepsin L, sequence (P07711 114-333): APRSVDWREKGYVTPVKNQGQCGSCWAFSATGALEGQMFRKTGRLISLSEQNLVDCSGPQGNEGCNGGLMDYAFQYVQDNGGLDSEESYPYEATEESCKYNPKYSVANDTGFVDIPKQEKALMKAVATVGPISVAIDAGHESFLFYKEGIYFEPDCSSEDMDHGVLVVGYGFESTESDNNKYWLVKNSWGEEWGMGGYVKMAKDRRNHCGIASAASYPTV
T2 sequence (P10605 80-333 limits assumed): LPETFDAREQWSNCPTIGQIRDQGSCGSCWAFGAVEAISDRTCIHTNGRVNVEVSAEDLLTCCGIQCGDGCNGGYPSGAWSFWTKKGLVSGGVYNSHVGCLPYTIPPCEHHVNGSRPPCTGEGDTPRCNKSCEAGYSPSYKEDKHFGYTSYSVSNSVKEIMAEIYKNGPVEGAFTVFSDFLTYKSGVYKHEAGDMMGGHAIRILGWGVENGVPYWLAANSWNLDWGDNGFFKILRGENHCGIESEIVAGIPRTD

Compound	Fluorescence labeling of recombinant cathepsin B [1]	Fluorescence labeling of recombinant cathepsin S [2]	Fluorescence labeling of recombinant cathepsin L [3]	Probe staining intensity in live cells [5]	Nuclear cathepsin labeling (confocal Z-stack, costaining with Hoechst) [5]	Fold quenching (quenching efficiency) [6]	Labeling of intracellular cathepsin L [7]	Labeling of intracellular cathepsin B [8]	further results
Cc1cccc(C)c1C(=O)OCC(=O)[C@H](CCCCN)NC(=O)[C@H](Cc1ccccc1)NC(=O)OCc1ccccc1 [GB111-NH2, reference compound]	dramatically reduced	dramatically reduced	dramatically reduced						Fluorescent signal of KRS probes after inhibitor pretreatment ([4]; live HeLa, 2.5 μM GB111-NH2 pretreatment, then KRS-B1(qTAT) or KRS-E1(qNLS) 6 h): strongly reduced
Ac-Cys-Phe-Phe-Lys-(TMR-X)-AOMK-Ac [KRS-C1(Ac)]				relatively weak staining					
Ac-Cys-Phe-Phe-Lys-(TMR-X)-AOMK-QSY7 [KRS-D1(qAc)]				relatively weak staining	did not detect cathepsins in the nucleus	61 fold			
NLS-Cys-Phe-Phe-Lys-(TMR-X)-AOMK-Ac [KRS-F1(NLS)]				intense staining					
NLS-Cys-Phe-Phe-Lys-(TMR-X)-AOMK-QSY7 [KRS-E1(qNLS)]	slightly lower	slightly lower	slightly lower	intense staining	label nuclear cathepsins	54 fold	enhanced labeling	enhanced labeling	Cell permeability / cell penetration [8]: significantly greater cell penetration; Intensity in fractions relative to KRS-B1(qTAT) [9]: weaker intensity; Active cathepsin in nuclear fraction [9]: clear presence of active nuclear cathepsin
TAT-Cys-Phe-Phe-Lys-(TMR-X)-AOMK-Ac [KRS-A1(TAT)]				intense staining			enhanced labeling	enhanced labeling	Binding relative to the other probes ([8]; as seen in Figures 2 and 6a): strongest binding of all probes; Permeability in time-course labeling [10]: enhanced and accelerated permeability; Permeability in time-course labeling [11]: enhanced and accelerated permeability
TAT-Cys-Phe-Phe-Lys-(TMR-X)-AOMK-QSY7 [KRS-B1(qTAT)]	slightly lower	slightly lower	slightly lower	intense staining	label nuclear cathepsins	66 fold	enhanced labeling	enhanced labeling	Nuclear cathepsin activity (TMR-X and Draq5 similarity) [12]: much higher degree; Cell permeability / cell penetration [8]: significantly greater cell penetration; Active cathepsin in nuclear fraction [9]: clear presence of active nuclear cathepsin; Permeability in time-course labeling [10]: enhanced and accelerated permeability; Effect on entry of cells to mitosis ([4]; HeLa, 2.5 μM, time-lapse over 22 h): inhibited the entry of cells to mitosis; Permeability in time-course labeling [11]: enhanced and accelerated permeability
